Here are results for two compounds from paper PMC10794982, “β-Caryophyllene Inhibits Monoacylglycerol Lipase Activity and Increases 2-Arachidonoyl Glycerol Levels In Vivo: A New Mechanism of Endocannabinoid-Mediated Analgesia?” (Molecular Pharmacology, 2024).

In test [1] the target is T1, monoacylglycerol lipase (MAGL) (Homo sapiens, UniProt Q99685).
T1 construct: gene MGLL
T1 sequence (Q99685 1-303): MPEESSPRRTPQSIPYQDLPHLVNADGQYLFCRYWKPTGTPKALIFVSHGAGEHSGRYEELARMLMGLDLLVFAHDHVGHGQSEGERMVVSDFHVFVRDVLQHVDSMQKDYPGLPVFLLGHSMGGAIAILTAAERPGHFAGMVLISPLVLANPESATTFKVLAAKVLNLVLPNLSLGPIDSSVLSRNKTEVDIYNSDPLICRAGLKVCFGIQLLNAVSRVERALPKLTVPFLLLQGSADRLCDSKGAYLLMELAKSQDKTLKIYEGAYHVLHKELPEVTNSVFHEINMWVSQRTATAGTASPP
The experiment in a line: hydrolysis by kit MAGL, arachidonic acid product by HPLC-MS/MS. The test is classed as biochemical. As to the method: hydrolysis by kit MAGL, arachidonic acid product by HPLC-MS/MS on monoacylglycerol lipase (MAGL) | natural substrate 2-AG, which is hydrolyzed by MAGL to glycerol and AA. AA concentrations were determined using HPLC-MS/MS

The target in test [2] is T1, monoacylglycerol lipase (MAGL). Kind of test: modified Cayman MAGL inhibitor kit, 2-AG hydrolysis to arachidonic acid by HPLC-MS/MS. Type of test: biochemical.

`CCCCC/C=C\C/C=C\C/C=C\C/C=C\CCCC(=O)OC(CO)CO` [2-AG, 2-arachidonoylglycerol]: the “hydrolysis by kit MAGL, arachidonic acid product by HPLC-MS/MS” value in test [1] is “natural substrate 2-AG, which is hydrolyzed by MAGL to glycerol and AA. AA concentrations were determined using HPLC-MS/MS”. As to `C=C1CC/C=C(\C)CC[C@@H]2[C@@H]1CC2(C)C` [BCP, β-Caryophyllene], in test [2], the IC50 was found to be 15.8 µM.

As usually defined, the IC50 is the concentration that gives 50% inhibition.
